Data as given in ChEMBL document CHEMBL2150939, “Synthesis and cytotoxicity of novel ursolic acid derivatives containing an acyl piperazine moiety” (Eur J Med Chem, 2012).

Legend:
[1] = Growth inhibition of mouse NIH/3T3 cells at 10 uM after 72 hrs by MTT assay; type: cell-based, NIH3T3; details: read-out: GI
Bcap37 = experiment: Growth inhibition of human Bcap37 cells at 10 uM after 72 hrs by MTT assay; type: functional; details: Bcap37, 72 h, read-out: GI
MGC-803 [2] = experiment: Growth inhibition of human MGC803 cells at 10 uM after 72 hrs by MTT assay; type: functional; details: MGC-803, 72 h, read-out: GI
MGC-803 [3] = experiment: Antiproliferative activity against human MGC803 cells after 72 hrs by MTT assay; type: functional, cell-based; details: MGC-803, 72 h

Row | SMILES | IC50 (MGC-803 [3]) [µM] | inhibition at 72 h, 10 µM [1] [%] | inhibition of growth at 10 µM (Bcap37) [%] | inhibition of growth at 10 µM (MGC-803 [2]) [%]
1 | C[C@H]1[C@H](C)CC[C@]2(C(=O)OCCN3CCN(C(=O)c4ccnc(Cl)c4)CC3)CC[C@]3(C)C(=CC[C@@H]4[C@@]5(C)CC[C@H](O)C(C)(C)[C@@H]5CC[C@]43C)[C@H]12 |  | 44.3 | 19 | 24.1
2 | CCCCCCCCC(=O)N1CCN(CCOC(=O)[C@]23CC[C@@H](C)[C@H](C)[C@H]2C2=CC[C@@H]4[C@@]5(C)CC[C@H](O)C(C)(C)[C@@H]5CC[C@@]4(C)[C@]2(C)CC3)CC1 | > 20 | 12 | 12.5 | 44.2
3 | C=C/C=C/CC(=O)N1CCN(CCOC(=O)[C@]23CC[C@@H](C)[C@H](C)[C@H]2C2=CC[C@@H]4[C@@]5(C)CC[C@H](O)C(C)(C)[C@@H]5CC[C@@]4(C)[C@]2(C)CC3)CC1 |  | 35 | 14.7 | 23.4
4 | C[C@H]1[C@H](C)CC[C@]2(C(=O)OCCBr)CC[C@]3(C)C(=CC[C@@H]4[C@@]5(C)CC[C@H](O)C(C)(C)[C@@H]5CC[C@]43C)[C@H]12 | 12.4 | 11 | 23.1 | 39.4
5 | C[C@H]1[C@H](C)CC[C@]2(C(=O)OCCN3CCN(C(=O)c4cc([N+](=O)[O-])cc([N+](=O)[O-])c4)CC3)CC[C@]3(C)C(=CC[C@@H]4[C@@]5(C)CC[C@H](O)C(C)(C)[C@@H]5CC[C@]43C)[C@H]12 |  | 37.2 | 10.7 | 24.7
6 | C[C@H]1[C@H](C)CC[C@]2(C(=O)OCCN3CCN(C(=O)c4ccccc4)CC3)CC[C@]3(C)C(=CC[C@@H]4[C@@]5(C)CC[C@H](O)C(C)(C)[C@@H]5CC[C@]43C)[C@H]12 |  | 19.1 | 23.9 | 21.4
7 | C[C@H]1[C@H](C)CC[C@]2(C(=O)OCCN3CCN(C(=O)c4cccnc4)CC3)CC[C@]3(C)C(=CC[C@@H]4[C@@]5(C)CC[C@H](O)C(C)(C)[C@@H]5CC[C@]43C)[C@H]12 |  | 52.3 | 24.5 | 22
8 | C[C@H]1[C@H](C)CC[C@]2(C(=O)OCCN3CCN(C(=O)c4ccc([N+](=O)[O-])cc4)CC3)CC[C@]3(C)C(=CC[C@@H]4[C@@]5(C)CC[C@H](O)C(C)(C)[C@@H]5CC[C@]43C)[C@H]12 |  | 65.4 | 19.1 | 24.3

Second part, led by results:

Row | IC50 (MGC-803 [3]) [µM] | SMILES | inhibition at 72 h, 10 µM [1] [%] | inhibition of growth at 10 µM (Bcap37) [%] | inhibition of growth at 10 µM (MGC-803 [2]) [%]
9 | 9.41 | C[C@H]1[C@H](C)CC[C@]2(C(=O)OCCN3CCN(C(=O)c4cc(Cl)ccc4[N+](=O)[O-])CC3)CC[C@]3(C)C(=CC[C@@H]4[C@@]5(C)CC[C@H](O)C(C)(C)[C@@H]5CC[C@]43C)[C@H]12 | 77.7 | 33.2 | 57.3
10 | 13.3 | C[C@H]1[C@H](C)CC[C@]2(C(=O)OCCN3CCN(C(=O)c4ccncc4)CC3)CC[C@]3(C)C(=CC[C@@H]4[C@@]5(C)CC[C@H](O)C(C)(C)[C@@H]5CC[C@]43C)[C@H]12 | 55.4 | 8.3 | 32.1
11 | > 20 | C[C@H]1[C@H](C)CC[C@]2(C(=O)OCCN3CCN(C(=O)c4cccc(F)c4)CC3)CC[C@]3(C)C(=CC[C@@H]4[C@@]5(C)CC[C@H](O)C(C)(C)[C@@H]5CC[C@]43C)[C@H]12 | 33.5 | 32.1 | 45.3
12 | 14 | C[C@H]1[C@H](C)CC[C@]2(C(=O)OCCN3CCN(C(=O)c4cccnc4Cl)CC3)CC[C@]3(C)C(=CC[C@@H]4[C@@]5(C)CC[C@H](O)C(C)(C)[C@@H]5CC[C@]43C)[C@H]12 | 4.3 | 29 | 34.3
